According to patent US20090226408A1, “ANTI-FATIGUE COMPOSITION” (KANEKA CORPORATION, priority 2005, published 2009):

Test system: Sprague-Dawley male rats
Test: Treadmill test using young rat (maximum running time)
Assay type: in vivo
Details: reduced coenzyme Q10 100 mg/kg, lipoic acid 30 mg/kg; for extension of the maximum running time (after the sample administration relative to before the administration), Average: Sprague-Dawley male rats 7 to 10 week old, oral in 0.5% CMC-Na, before vs three hours after administration; for extension of the maximum running time, significance: single agents: before vs after administration, combination: compared to control group, oral, three hours after administration
Method: Using Sprague-Dawley male rats (7 to 10 week old, n=20), anti-fatigue effects brought about by reduced coenzyme Q10 alone (about 2% of oxidized coenzyme Q10 included), lipoic acid alone, and combination use of reduced coenzyme Q10 and lipoic acid were evaluated with a treadmill. In the test, rats were run at a speed of 10 m/min using a treadmill apparatus (model NK-73-4 made by Natume Seisakusho Co., Ltd.), and the speed was increased stepwise, by 5 m/min every 3 min, and the time when the rats became unable to run (maximum running time) was measured.
As substances to be tested, 0.5% sodium carboxymethylcellulose (CMC-Na) aqueous solutions of reduced coenzyme Q10 (about 2% oxidized coenzyme Q10 included) or lipoic acid (α-lipoic acid (manufactured by Tokyo Chemical Industry Co., Ltd.)) were each prepared and the solutions were orally administered to rats at a dose of 100 mg/kg for reduced coenzyme Q10 or at a dose of 30 mg/kg for lipoic acid. Rats were divided into four groups of a solvent administered group, reduced coenzyme Q10 only administered group, lipoic acid only administered group, and a reduced coenzyme Q10 and lipoic acid combined group (reduced coenzyme Q10 and lipoic acid were administered almost simultaneously). The maximum running time was measured before and three hours after the administration and an extension of the maximum running time (after the sample administration relative to before the administration) was calculated. A 0.5% CMC-Na aqueous solution was administered to the control group.

SMILES | extension of the maximum running time (after the sample administration relative to before the administration), Average [s] | extension of the maximum running time, significance
O=C(O)CCCCC1CCSS1 (stereo not shown) [Lipoic acid, 1,2-dithioran-3-pentanoic acid] | 7.3 | no significant extension
COc1c(O)c(C)c(C/C=C(\C)CC/C=C(\C)CC/C=C(\C)CC/C=C(\C)CC/C=C(\C)CC/C=C(\C)CC/C=C(\C)CC/C=C(\C)CC/C=C(\C)CCC=C(C)C)c(O)c1OC [Reduced coenzyme Q10, reduced coenzyme Q10] | 17.5 | no significant extension
